Measured values as given in ChEMBL document CHEMBL5724914, “Linking interpersonal differences in gut microbiota composition and drug biotransformation activity” (2024).

Assays:
[1] = human gut metagenome, 24 h, 2 µM
[2] = (§1) The drug is tested on WLS-090 corresponding to human gut metagenome with ENA study accession number: PRJEB37062 and ENA sample accession number: ERS12561753 for biotransformation under anaerobic condition. The drug concentrations were measured over 9 timepoints collected between 0 and 24 hours of incubation by liquid-chromatography-coupled mass spectrometry (LC–MS); settings: 2 µM
[3] = human gut metagenome, 24 h, 2 µM; remark: listed apart in the source
[4] = human gut metagenome, 24 h, 2 µM; remark: listed apart in the source
[5] = human gut metagenome, 24 h, 2 µM; remark: listed apart in the source
[6] = as §1, with “Z-009” for “WLS-090”, “pig” for “human”, “ERS12561809” for “ERS12561753”; settings: 2 µM
[7] = as §1, with “WLS-038” for “WLS-090”, “ERS12561745” for “ERS12561753”; settings: 2 µM
[8] = human gut metagenome, 24 h, 2 µM; remark: listed apart in the source
[9] = as §1, with “Z-003” for “WLS-090”, “pig” for “human”, “ERS12561803” for “ERS12561753”; settings: 2 µM
[10] = as §1, with “WLS-370” for “WLS-090”, “ERS12561793” for “ERS12561753”; settings: 2 µM
[11] = as §1, with “Z-020” for “WLS-090”, “rabbit” for “human”, “ERS12561819” for “ERS12561753”; settings: 2 µM
[12] = as §1, with “Z-005” for “WLS-090”, “to” for “to human gut”, “ERS12561805” for “ERS12561753”; settings: 2 µM
[13] = as §1, with “WLS-098” for “WLS-090”, “ERS12561754” for “ERS12561753”; settings: 2 µM
[14] = human gut metagenome, 24 h, 2 µM; remark: listed apart in the source
[15] = human gut metagenome, 24 h, 2 µM; remark: listed apart in the source
[16] = human gut metagenome, 24 h, 2 µM; remark: listed apart in the source
[17] = human gut metagenome, 24 h, 2 µM; remark: listed apart in the source
[18] = human gut metagenome, 24 h, 2 µM; remark: listed apart in the source
[19] = human gut metagenome, 24 h, 2 µM; remark: listed apart in the source
[20] = human gut metagenome, 24 h, 2 µM; remark: listed apart in the source
Note: call rule not given here.

Compound: CCN(CC)C(=O)C1(c2ccccc2)CC1CN (stereo not drawn)
- Bacterial Biotransformation [1]: Compound NOT metabolized
- Bacterial Biotransformation [2]: Compound NOT metabolized
- Bacterial Biotransformation [3]: Compound NOT metabolized
- Bacterial Biotransformation [4]: Compound NOT metabolized
- Bacterial Biotransformation [5]: Compound NOT metabolized
- Bacterial Biotransformation [6]: Compound NOT metabolized
- Bacterial Biotransformation [7]: Compound NOT metabolized
- Bacterial Biotransformation [8]: Compound NOT metabolized
- Bacterial Biotransformation [9]: Compound NOT metabolized
- Bacterial Biotransformation [10]: Compound NOT metabolized
- Bacterial Biotransformation [11]: Compound NOT metabolized
- Bacterial Biotransformation [12]: Compound NOT metabolized
- Bacterial Biotransformation [13]: Compound NOT metabolized
- Bacterial Biotransformation [14]: Compound NOT metabolized
- Bacterial Biotransformation [15]: Compound NOT metabolized
- Bacterial Biotransformation [16]: Compound NOT metabolized
- Bacterial Biotransformation [17]: Compound NOT metabolized
- Bacterial Biotransformation [18]: Compound NOT metabolized
- Bacterial Biotransformation [19]: Compound NOT metabolized
- Bacterial Biotransformation [20]: Compound NOT metabolized

Compound: COc1ccc(/C=C/C(=O)Nc2ccccc2C(=O)O)cc1OC
- Bacterial Biotransformation [1]: Compound NOT metabolized
- Bacterial Biotransformation [2]: Compound NOT metabolized
- Bacterial Biotransformation [3]: Compound NOT metabolized
- Bacterial Biotransformation [4]: Compound NOT metabolized
- Bacterial Biotransformation [5]: Compound NOT metabolized
- Bacterial Biotransformation [6]: Compound metabolized
- Bacterial Biotransformation [7]: Compound metabolized
- Bacterial Biotransformation [8]: Compound NOT metabolized
- Bacterial Biotransformation [9]: Compound metabolized
- Bacterial Biotransformation [10]: Compound NOT metabolized
- Bacterial Biotransformation [11]: Compound metabolized
- Bacterial Biotransformation [12]: Compound metabolized
- Bacterial Biotransformation [13]: Compound metabolized
- Bacterial Biotransformation [14]: Compound NOT metabolized
- Bacterial Biotransformation [15]: Compound NOT metabolized
- Bacterial Biotransformation [16]: Compound NOT metabolized
- Bacterial Biotransformation [17]: Compound NOT metabolized
- Bacterial Biotransformation [18]: Compound metabolized
- Bacterial Biotransformation [19]: Compound NOT metabolized
- Bacterial Biotransformation [20]: Compound NOT metabolized

Compound: Nc1nc(NC2CC2)c2ncn([C@H]3C=C[C@@H](CO)C3)c2n1.Nc1nc(NC2CC2)c2ncn([C@H]3C=C[C@@H](CO)C3)c2n1.O=S(=O)(O)O [ABACAVIR SULFATE]
- Bacterial Biotransformation [1]: Compound metabolized
- Bacterial Biotransformation [2]: Compound metabolized
- Bacterial Biotransformation [3]: Compound metabolized
- Bacterial Biotransformation [4]: Compound NOT metabolized
- Bacterial Biotransformation [5]: Compound metabolized
- Bacterial Biotransformation [6]: Compound NOT metabolized
- Bacterial Biotransformation [7]: Compound NOT metabolized
- Bacterial Biotransformation [8]: Compound metabolized
- Bacterial Biotransformation [9]: Compound NOT metabolized
- Bacterial Biotransformation [10]: Compound NOT metabolized
- Bacterial Biotransformation [11]: Compound NOT metabolized
- Bacterial Biotransformation [12]: Compound NOT metabolized
- Bacterial Biotransformation [13]: Compound metabolized
- Bacterial Biotransformation [14]: Compound metabolized
- Bacterial Biotransformation [15]: Compound metabolized
- Bacterial Biotransformation [16]: Compound metabolized
- Bacterial Biotransformation [17]: Compound metabolized
- Bacterial Biotransformation [18]: Compound metabolized
- Bacterial Biotransformation [19]: Compound metabolized
- Bacterial Biotransformation [20]: Compound NOT metabolized

Compound: CCN(CC)CCNC(=O)c1ccc(NC(C)=O)cc1 [ACECAINIDE]
- Bacterial Biotransformation [1]: Compound NOT metabolized
- Bacterial Biotransformation [2]: Compound metabolized
- Bacterial Biotransformation [3]: Compound NOT metabolized
- Bacterial Biotransformation [4]: Compound NOT metabolized
- Bacterial Biotransformation [5]: Compound metabolized
- Bacterial Biotransformation [6]: Compound NOT metabolized
- Bacterial Biotransformation [7]: Compound NOT metabolized
- Bacterial Biotransformation [8]: Compound NOT metabolized
- Bacterial Biotransformation [9]: Compound NOT metabolized
- Bacterial Biotransformation [10]: Compound NOT metabolized
- Bacterial Biotransformation [11]: Compound NOT metabolized
- Bacterial Biotransformation [12]: Compound NOT metabolized
- Bacterial Biotransformation [13]: Compound metabolized
- Bacterial Biotransformation [14]: Compound metabolized
- Bacterial Biotransformation [15]: Compound NOT metabolized
- Bacterial Biotransformation [16]: Compound NOT metabolized
- Bacterial Biotransformation [17]: Compound NOT metabolized
- Bacterial Biotransformation [18]: Compound metabolized
- Bacterial Biotransformation [19]: Compound NOT metabolized
- Bacterial Biotransformation [20]: Compound NOT metabolized

Compound: Cc1cc2c(s1)Nc1ccccc1N=C2N1CCN(C)CC1 [OLANZAPINE]
- Bacterial Biotransformation [1]: Compound NOT metabolized
- Bacterial Biotransformation [4]: Compound NOT metabolized
- Bacterial Biotransformation [5]: Compound NOT metabolized
- Bacterial Biotransformation [6]: Compound NOT metabolized
- Bacterial Biotransformation [7]: Compound NOT metabolized
- Bacterial Biotransformation [8]: Compound NOT metabolized
- Bacterial Biotransformation [9]: Compound metabolized
- Bacterial Biotransformation [10]: Compound NOT metabolized
- Bacterial Biotransformation [11]: Compound NOT metabolized
- Bacterial Biotransformation [12]: Compound NOT metabolized
- Bacterial Biotransformation [15]: Compound NOT metabolized
- Bacterial Biotransformation [16]: Compound NOT metabolized
- Bacterial Biotransformation [17]: Compound NOT metabolized
- Bacterial Biotransformation [18]: Compound metabolized
- Bacterial Biotransformation [19]: Compound metabolized
- Bacterial Biotransformation [20]: Compound NOT metabolized

Compound: COc1ccc(Cc2nccc3cc(OC)c(OC)cc23)cc1OC [PAPAVERINE]
- Bacterial Biotransformation [2]: Compound metabolized
- Bacterial Biotransformation [3]: Compound NOT metabolized
- Bacterial Biotransformation [4]: Compound metabolized
- Bacterial Biotransformation [5]: Compound metabolized
- Bacterial Biotransformation [6]: Compound metabolized
- Bacterial Biotransformation [7]: Compound NOT metabolized
- Bacterial Biotransformation [8]: Compound metabolized
- Bacterial Biotransformation [9]: Compound metabolized
- Bacterial Biotransformation [10]: Compound metabolized
- Bacterial Biotransformation [11]: Compound NOT metabolized
- Bacterial Biotransformation [12]: Compound metabolized
- Bacterial Biotransformation [14]: Compound metabolized
- Bacterial Biotransformation [15]: Compound metabolized
- Bacterial Biotransformation [16]: Compound metabolized
- Bacterial Biotransformation [17]: Compound metabolized
- Bacterial Biotransformation [18]: Compound metabolized
- Bacterial Biotransformation [19]: Compound NOT metabolized
- Bacterial Biotransformation [20]: Compound metabolized

Compound: CC(=O)OCC(=O)NCCCOc1cccc(CN2CCCCC2)c1 [ROXATIDINE ACETATE]
- Bacterial Biotransformation [1]: Compound metabolized
- Bacterial Biotransformation [2]: Compound metabolized
- Bacterial Biotransformation [3]: Compound metabolized
- Bacterial Biotransformation [4]: Compound metabolized
- Bacterial Biotransformation [5]: Compound NOT metabolized
- Bacterial Biotransformation [6]: Compound metabolized
- Bacterial Biotransformation [7]: Compound metabolized
- Bacterial Biotransformation [8]: Compound metabolized
- Bacterial Biotransformation [9]: Compound metabolized
- Bacterial Biotransformation [10]: Compound metabolized
- Bacterial Biotransformation [11]: Compound metabolized
- Bacterial Biotransformation [12]: Compound metabolized
- Bacterial Biotransformation [13]: Compound metabolized
- Bacterial Biotransformation [15]: Compound metabolized
- Bacterial Biotransformation [16]: Compound metabolized
- Bacterial Biotransformation [17]: Compound metabolized
- Bacterial Biotransformation [18]: Compound metabolized
- Bacterial Biotransformation [19]: Compound metabolized
- Bacterial Biotransformation [20]: Compound metabolized
